Results as given in US5556777A, “Immunosuppressive pharmaceutical compositions new biological activity from a marine agrobacterium sp” (PharmaMar, s.a., priority 1993, dated 1996).
In brackets after ≈: the same amount, converted by molar mass.

What was measured:
[1] = test system: murine lymphocytes (Balb/c and C57BI/6, cocultured); assay: In vitro murine mixed lymphocyte reaction (MLR); format: cell-based; details: for MLR IC50: murine MLR, 96 h incubation, 15 h 3H-Thy pulse; for Index Cytotox./Activity: ratio LcV IC50 / MLR IC50
Experimental: The MLR is an in vitro test of cellular immunity in which murine lymphocytes from genetically dissimilar animals are cocultured to mutually induce cell proliferation (i.e., two-way MLR method). Mixed cell suspensions, together with the test compound, are incubated for 96 hours and subsequently pulsed for 15 hours with tritiated-thymidine (3H-Thy), a radioisotopically labelled nucleic acid. Tritiated-thymidine is incorporated into the DNA of proliferating cells. Data from the MLR is generated as dpm of radioactivity which is then expressed as a percentage of cellular activity, relative to control, using the following reduced formula: [formula]
A 50% inhibitory concentration (IC50) value was interpolated for sesbanimide containing fractions tested. A ratio between cytotoxicity, as determined from the LcV described below, and activity in the MLR is also presented. A high ratio distinguishes noncytotoxic immunosuppression from general cytotoxicity.
Reconstituted extract (10 μl) is added in two sets of duplicates into wells of a 96-well microtiter plate and evaporated to dryness at room temperature. […] To the other set of sample duplicates is added complete media without cells so as to provide for background color control data. All plated are incubated in a 5% CO2 incubator for 96 hours and pulsed for 15 hours with 100 μl containing 1 μCi/well tritiated-thymidine (^3 H-Thy). The plates are harvested onto glass fiber filter discs using an INOTECH harvester. The filter discs are counted directly using an INOTECH dry scintillation counter. The activity of the discs are calculated as a relative proliferative percent of a mean control value as described above.

[2] = Lymphocyte viability / cytotoxicity assay (LcV), MTT; format: cell-based, murine; details: mouse, lymphocytes; LcV; read-out: cytotoxicity IC50
Experimental: (§1) The LCV is a in vitro cytotoxicity assay for murine lymphocytes designed by the investigator. The LCV is similar to the MLR with the exception that only one cell population (Balb/c) is incubated with the test compound to assess cytotoxicity as distinct from the antiproliferative effects of a test compound. That is, unlike the unambiguous determination of immunostimulation from MLR data, a judgement of immunosuppression can not be immediately interpreted. Cytotoxicity (e.g., due to direct cell lysis) from a compound can occur which would alter viability determinations inherent in the generation of MLR data. […] The percent viable cells is determined by the MTT-thiazolyl blue method after a similar incubation to the MLR of lymphocytes with the test sample. MTT is a substrate converted by mitochondrial enzymes in living cells to a purple, water-insoluble, formazan crystal. If there is no significant reduction in cell viability, as determined by this detection method, then damaged cells are probably not present for low data values generated in the MLR. Colorimetric data from the LCV is calculated as a percentage of viability, relative to control, using the following formula: [formula]
(§2) A 50% viability, or 50% cytotoxicity, (IC50) value was interpolated for sesbanimide containing fractions tested.
(§3) Lymphocytes are prepared as described above for the MLR with the exception that cells from only one murine strain are prepared (BLAB/c). Reconstituted extract (10 μl) is added in two sets of duplicates into wells of a 96-well microtiter plate and evaporated to dryness at room temperature. Lymphocytes (2.5×10^6 cells/ml) are added to one set of duplicates and to wells containing no sample. Media containing no cells are added to the other set of duplicates to provide background color control data. Plated are incubated in a 5% CO2 incubator for 4 hours and pulsed with MTT-thiazolyl blue for 6-8 hours.

[3] = test system: murine lymphocytes (Balb/c); assay: as above; format: cell-based; details: murine lymphocytes, MTT viability (50% cytotoxicity)
Experimental: as §1, §2, §3

[4] = Toxicology (MTD, LD50) in CD-1 or CB6F1 mice; format: in vivo, mouse; details: mouse, in vivo, CD-1 or CB6F1 mice
Experimental: (§4) The MTD establishes the parameters to establish in vivo dosages initiated for studying the Graft-v-Host reaction and skin grafting. The Swiss conventional mouse (Charles River CD-1) is used in a weight range from 18-30 g.
(§5) Animals are injected with a single dose at four dose levels: e.g., 400 mg/kg, 100 mg/kg, 40 mg/kg, and 10 mg/kg in 0.5 ml of sterile vehicle (2 animals per dose, MTD). A saline solution containing 5% non-denatured EtOH and a drop of Tween-80 detergent is used a vehicle for dilution. Stirring and sonication are utilized to effect solution or suspension of the composition. The composition is injected within one hour of preparation. Animals are observed for five days (MTD) after injection for toxic symptoms and/or death. Group weights are taken D0 and D5. Surviving animals are sacrificed on D5 (MTD). A `Daily Logsheet` used in the toxicity studies is appended.

CD-1 or CB6F1 mice = assay: Toxicology (MTD, LD50) in CD-1 or CB6F1 mice; format: in vivo, mouse
Experimental: as §4, §5

Graft-v-Host Reaction = assay: In vivo Graft-v-Host reaction (GVHR), spleen index; design: species or system mouse
Experimental: Any sample that prevents splenomegaly (<graft index) is considered as an immunosuppressive active.
A standard of cyclophosphamide (200 mg/kg) is used. Experimental animals are sacrificed on D8 and spleens removed. […] Moribund animals are sacrificed immediately.

leukemia = details: isolated from Sesbania drummondi; cited from earlier work
[5] = test system: primary mixed lymphocyte cultures (MLRs) and alloreactive T cells; details: compared with cyclosporin A; cited from earlier work
[6] = test system: Agrobacterium sp. strain PH-103; assay: Antibiotic sensitivity of strain PH-103 (sensitivity discs); format: cell-based; details: 27° C.
Experimental: 18. Antibiotic sensitivity--ATCC number 231 basal medium. Difco sensitivity discs
The culture was incubated at 27° C. and records of the results were made after suitable incubation times. All media were prepared with 2.7% Instant Ocean Salts and pH was approximately neutral (7-7.4). The description of the culture and test results are as follows: […]

Molecule: C=C1COC(O)(C2OCOC(C3CC(=O)NC(=O)C3)C2O)C1C (single isomer, unassigned) [Sesbanimide]
- immunosuppressive activity (in words) ([1]; Table 4 data: trace amounts of an extract, major constituent, or pure compound): potent immunosuppressive activity
- MLR IC50 ([1]; listed as ET 103/64-6:8): < 0.0075 µg/mL
- MLR IC50 ([1]; listed as ET 103/89-4): 0.00015 µg/mL
- Index Cytotox./Activity ([1]; listed as ET 103/64-6:8): > 1,746
- Index Cytotox./Activity ([1]; listed as ET 103/89-4): 2,777
- CC50 at 4 h [2]: 0.417 to 3.6 µg/mL (≈ 1.27 to 11 µM)
- LcV IC50 ([3]; listed as ET 103/64-6:8): 13.100 µg/mL
- LcV IC50 ([3]; listed as ET 103/89-4): 0.417 µg/mL
- survival at 120 h ([4]; at maximum tolerated dose, read-out: Alive Day 5): 100%
- MTD at 120 h ([4]; read-out: Maximum Tolerated): 0.56 mg/kg
- LD50 (CD-1 or CB6F1 mice; CD-1 or CB6F1 mice): 0.805 mg/kg
- toxicity at 56, 10.5 and 5.6 mg/kg (CD-1 or CB6F1 mice; pure compound, in vivo, 56, 10.5 and 5.6 mg/kg): toxic
- toxicity at total doses equal to or lower than 0.56 mg/kg (CD-1 or CB6F1 mice; pure compound, in vivo, total dose ≤0.56 mg/kg): no toxicity
- immunosuppressive activity in GVHR (in words) (Graft-v-Host Reaction; Table 6 data): potent immunosuppressive activity
- Alive Day 8 (Graft-v-Host Reaction; optimal dose 0.2 mg/kg, i.p. per diem 7 days): 40%
- GVHR Index (Graft-v-Host Reaction; optimal dose 0.2 mg/kg, i.p. per diem 7 days, positive 1.34): 0.92
- antineoplastic activity (in words) (leukemia): antineoplastic activity, particularly against leukemia

Molecule: O=P1(N(CCCl)CCCl)NCCCO1 (stereo not shown) [Cyclophosphamide, cyclophosphamide]
- Alive Day 8 (Graft-v-Host Reaction; 200.0 mg/kg, test 124-93): 100%
- GVHR Index (Graft-v-Host Reaction; 200.0 mg/kg, test 124-93, positive 1.32): 0.23
- Alive Day 8 (Graft-v-Host Reaction; 200.0 mg/kg, test 811-93): 60%
- GVHR Index (Graft-v-Host Reaction; 200.0 mg/kg, test 811-93, positive 1.34): 0.28

Molecule: C=CC[C@@H]1/C=C(\C)C[C@H](C)C[C@H](OC)[C@H]2O[C@@](O)(C(=O)C(=O)N3CCCC[C@H]3C(=O)O[C@H](/C(C)=C/[C@@H]3CC[C@@H](O)[C@H](OC)C3)[C@H](C)[C@@H](O)CC1=O)[C@H](C)C[C@@H]2OC [FK 506]
- potency relative to cyclosporin A (in words) [5]: more potent than cyclosporin A

Molecule: CCn1cc(C(=O)O)c(=O)c2ccc(C)nc21 [nalidixic acid]
- Antibiotic sensitivity of strain PH-103 [6]: Sensitive

Molecule: CN[C@H](CC(C)C)C(=O)N[C@H]1C(=O)N[C@@H](CC(N)=O)C(=O)N[C@H]2C(=O)N[C@H]3C(=O)N[C@H](C(=O)N[C@H](C(=O)O)c4cc(O)cc(O)c4-c4cc3ccc4O)[C@H](O)c3ccc(c(Cl)c3)Oc3cc2cc(c3O[C@@H]2O[C@H](CO)[C@@H](O)[C@H](O)[C@H]2O[C@H]2C[C@](C)(N)[C@H](O)[C@H](C)O2)Oc2ccc(cc2Cl)[C@H]1O [vancomycin]
- Antibiotic sensitivity of strain PH-103 [6]: resistant

Molecule: polymyxin
- Antibiotic sensitivity of strain PH-103 [6]: resistant
